Source: ChEMBL document CHEMBL5241075, “Advancement of chimeric hybrid drugs to cure malaria infection: An overview with special emphasis on endoperoxide pharmacophores” (Eur J Med Chem, 2021)
Converted amounts (≈) assume the structure as drawn. Each block holds one compound with its values, some of them ahead of it.

Tests used:
Plasmodium falciparum [1] = test: Antiplasmodial activity against Plasmodium falciparum 3D7; format: functional, organism-based
Plasmodium falciparum [2] = test: Antiplasmodial activity against Plasmodium falciparum D6; format: functional, organism-based
Plasmodium falciparum [3] = test: Antiplasmodial activity against Plasmodium falciparum W2; format: functional, organism-based
Plasmodium falciparum [4] = test: Antiplasmodial activity against Plasmodium falciparum DD2; format: functional, organism-based
Plasmodium falciparum [5] = test: Antiplasmodial activity against Plasmodium falciparum NF54; format: functional, organism-based
Plasmodium falciparum [6] = test: Antiplasmodial activity against chloroquine resistant Plasmodium falciparum; format: functional, organism-based
Plasmodium falciparum [7] = test: Antimalarial activity against chloroquine resistant Plasmodium falciparum FcB1; format: functional, organism-based
Plasmodium falciparum [8] = test: Antiplasmodial activity against Plasmodium falciparum FcM29; format: functional, organism-based
Plasmodium falciparum [9] = test: Antiplasmodial activity against Plasmodium falciparum Nigerian; format: functional, organism-based
Plasmodium falciparum [10] = test: Antiplasmodial activity against Plasmodium falciparum TM91C235; format: functional, organism-based
[11] = Stability of compound at pH 2 assessed as half life; format: physicochemical; conditions: buffer
Plasmodium falciparum [12] = test: Antiplasmodial activity against Plasmodium falciparum D10; format: functional, organism-based; conditions: Plasmodium falciparum, D10
Plasmodium falciparum [13] = test: Antiplasmodial activity against Plasmodium falciparum K1; format: functional, organism-based; conditions: Plasmodium falciparum, K1
Plasmodium falciparum [14] = test: Resistance index, ratio of IC50 for antiplasmodial activity against Plasmodium falciparum K1 to IC50 for antiplasmodial activity against Plasmodium falciparum D10; format: functional
[15] = read-out: ED50 (the source's name)

SMILES: C1CCC2(C1)OOC1(CCN(c3nc(N4CCOCC4)nc(N4CCOCC4)n3)CC1)OO2
- IC50 (Plasmodium falciparum [1]): 5.52 nM

SMILES: CCC1O[C@@H]2O[C@]3(C)CC[C@H]4[C@H](C)CC[C@@H]([C@H]1C)[C@@]24OO3 (some centres not stated)
- IC50 (Plasmodium falciparum [2]): 1.09 ng/mL
- IC50 (Plasmodium falciparum [3]): 0.29 ng/mL

SMILES: COc1ccc2nc3cc(Cl)ccc3c(NCCN3CCN(CCO[C@H]4O[C@@H]5O[C@]6(C)CC[C@H]7[C@H](C)CC[C@@H]([C@H]4C)[C@@]57OO6)CC3)c2c1
- IC50 (Plasmodium falciparum [4]): 50.4 nM
- IC50 (Plasmodium falciparum [5]): 14.1 nM

SMILES: C[C@H]1[C@@H](OC(=O)CCC(=O)Nc2cccc3ncnc(Nc4ccc(Cl)c(Cl)c4)c23)O[C@@H]2O[C@]3(C)CC[C@H]4[C@H](C)CC[C@@H]1[C@@]24OO3
- EC50 (Plasmodium falciparum [1]; read-out: EC50): 2.4 nM

SMILES: C[C@@H]1CC[C@@H]2[C@]34OO[C@@](C)(CC[C@@H]13)O[C@H]4OC(Nc1cccc(F)c1)[C@@]2(C)Br (some centres not stated)
- IC50 (Plasmodium falciparum [6]): 0.16 ng/mL

SMILES: C[C@@H]1CC[C@@H]2[C@]34OO[C@@](C)(CC[C@@H]13)O[C@H]4OC(Nc1ncccn1)[C@@]2(C)Br (some centres not stated)
- IC50 (Plasmodium falciparum [6]): 0.16 ng/mL

SMILES: COc1ccc2nc3cc(Cl)ccc3c(N3CCN(CCO[C@H]4O[C@@H]5O[C@]6(C)CC[C@H]7[C@H](C)CC[C@@H]([C@H]4C)[C@@]57OO6)CC3)c2c1
- IC50 (Plasmodium falciparum [4]): 430 nM
- IC50 (Plasmodium falciparum [5]): 267 nM

SMILES: COc1ccc2nc3cc(Cl)ccc3c(NCCCN(C)CCO[C@H]3O[C@@H]4O[C@]5(C)CC[C@H]6[C@H](C)CC[C@@H]([C@H]3C)[C@@]46OO5)c2c1
- IC50 (Plasmodium falciparum [4]): 38.5 nM
- IC50 (Plasmodium falciparum [5]): 12.2 nM

SMILES: CCOP(=O)(CCCN(O)C(=O)CCC(=O)N(CCCNC(=O)CC[C@H]1O[C@@H]2O[C@]3(C)CC[C@H]4[C@H](C)CC[C@@H]([C@H]1C)C24OO3)CCCNC(=O)CC[C@H]1O[C@@H]2O[C@]3(C)CC[C@H]4[C@H](C)CC[C@@H]([C@H]1C)C24OO3)OCC
- IC50 (Plasmodium falciparum [7]): 360 nM

SMILES: CC(CCC1OOC(C)(C)C(C)(CI)O1)NCCNc1ccnc2cc(Cl)ccc12 (configuration not stated)
- IC50 (Plasmodium falciparum [8]): 188 nM
- IC50 (Plasmodium falciparum [9]): 188 nM
- IC50 (Plasmodium falciparum [7]): 188 nM

SMILES: CC(=O)O[C@H]1CC2C(C3CC[C@H]([C@H](C)CCC(=O)NCCNc4ccnc5cc(Cl)ccc45)[C@]31C)[C@H](OC(C)=O)C[C@@H]1CC3(CC[C@H]21)OOC1(CCCCC1)OO3 (some centres not stated)
- IC50 (Plasmodium falciparum [10]): 8.54 nM
- IC90 (Plasmodium falciparum [10]): 17.2 nM
- IC50 (Plasmodium falciparum [2]): 6.53 nM
- IC90 (Plasmodium falciparum [2]): 10.6 nM
- IC50 (Plasmodium falciparum [3]): 4.47 nM
- IC90 (Plasmodium falciparum [3]): 10.5 nM

SMILES: C1CCC2(CC1)OOC1(CCN(c3nc(N4CCOCC4)nc(N4CCOCC4)n3)CC1)OO2
- IC50 (Plasmodium falciparum [1]): 5.68 nM

SMILES: CC(C)CN(NC(=O)C1CCC2(CC1)OOC1(OO2)C2CC3CC(C2)CC1C3)c1ccnc(C#N)n1 (configuration not stated)
- IC50 (Plasmodium falciparum [3]): 9.8 nM

SMILES: COC1(C(F)(F)F)O[C@@H]2O[C@]3(C)CC[C@H]4[C@H](C)CC[C@@H]([C@H]1C)[C@@]24OO3 (some centres not stated)
- half-life [11]: 27.5 days
- IC50 (Plasmodium falciparum [6]): 0.8 nM

SMILES: C[C@@H]1C[C@@H]2CC3(CC[C@@H]2C2CC[C@@]4(C)C(CC[C@@H]4[C@H](C)CCCNCCNc4ccnc5cc(Cl)ccc45)C21)OOC1(CCCCC1)OO3 (some centres not stated)
- IC50 (Plasmodium falciparum [10]): 30.2 nM
- IC90 (Plasmodium falciparum [10]): 160 nM
- IC50 (Plasmodium falciparum [2]): 33.5 nM
- IC90 (Plasmodium falciparum [2]): 103 nM
- IC50 (Plasmodium falciparum [3]): 22.9 nM
- IC90 (Plasmodium falciparum [3]): 30.3 nM

SMILES: CCOP(=O)(CCCN(O)C(=O)CC[C@H]1O[C@@H]2O[C@]3(C)CC[C@H]4[C@H](C)CC[C@@H]([C@H]1C)C24OO3)OCC
- IC50 (Plasmodium falciparum [7]): 28000 nM

SMILES: Clc1cc(NCCCN[C@H]2C[C@H]3CCC4(OO[C@@]5(c6ccccc6)CC(c6ccccc6)=C[C@H]5O4)[C@H]3C2)c2ncccc2c1 (some centres not stated)
- IC50 (Plasmodium falciparum [8]): 63 nM
- IC50 (Plasmodium falciparum [9]): 63 nM
- IC50 (Plasmodium falciparum [7]): 63 nM

SMILES: Clc1cc(NCCNC2CCC3(CC2)OOC2CCC=CC2O3)c2ncccc2c1 (configuration not stated)
- IC50 (Plasmodium falciparum [8]): 36 nM
- IC50 (Plasmodium falciparum [9]): 36 nM
- IC50 (Plasmodium falciparum [7]): 36 nM

SMILES: C[C@H]1[C@@H](O)O[C@@H]2C[C@]3(C)CC[C@H]4[C@H](C)CC[C@@H]1[C@@]24OO3
- IC50 (Plasmodium falciparum [12]): 4 nM
- IC50 (Plasmodium falciparum [13]): 3 nM
- Ratio IC50 (Plasmodium falciparum [14]): 0.75
- EC50 (Plasmodium falciparum [1]; read-out: EC50): 2.4 nM
- IC50 (Plasmodium falciparum [5]): < 7 nM

SMILES: Clc1cc(NCCNC2CCC3(CC2)OO[C@@]2(c4ccccc4)CC(c4ccccc4)=C[C@H]2O3)c2ncccc2c1 (mixture of isomers)
- IC50 (Plasmodium falciparum [8]): 22 nM
- IC50 (Plasmodium falciparum [9]): 22 nM
- IC50 (Plasmodium falciparum [7]): 22 nM

SMILES: COc1ccc2nc3cc(Cl)ccc3c(N3CCN(CCO[C@H]4O[C@@H]5O[C@]6(C)CC[C@H]7[C@H](C)CC[C@@H]([C@H]4C)[C@@]57OO6)C(C)C3)c2c1 (some centres not stated)
- IC50 (Plasmodium falciparum [4]): 41.3 nM
- IC50 (Plasmodium falciparum [5]): 17 nM

SMILES: C1CCCC2(CC1)OOC1(CCN(c3nc(N4CCOCC4)nc(N4CCOCC4)n3)CC1)OO2
- IC50 (Plasmodium falciparum [1]): 5.71 nM

SMILES: CCOC1(C(F)(F)F)O[C@@H]2O[C@]3(C)CC[C@H]4[C@H](C)CC[C@@H]([C@H]1C)[C@@]24OO3 (some centres not stated)
- half-life [11]: 20.8 days
- IC50 (Plasmodium falciparum [6]): 3.3 nM

SMILES: C[C@@H]1CC[C@H]2[C@@H](C)C(Oc3ccccc3)O[C@@H]3O[C@]4(C)CC[C@@H]1[C@]32OO4 (some centres not stated)
- IC50 (Plasmodium falciparum [6]): 5.3 nM

SMILES: C[C@@H]1CC[C@H]2[C@@H](C)C(O)(C(F)(F)F)O[C@@H]3O[C@]4(C)CC[C@@H]1[C@]32OO4 (some centres not stated)
- half-life [11]: 31.7 days
- IC50 (Plasmodium falciparum [6]): 9.4 nM

SMILES: Clc1cc(NCCCNC2CCC3(CC2)OO[C@@]2(c4ccccc4)CC(c4ccccc4)=C[C@H]2O3)c2ncccc2c1 (mixture of isomers)
- IC50 (Plasmodium falciparum [8]): 41 nM
- IC50 (Plasmodium falciparum [9]): 41 nM
- IC50 (Plasmodium falciparum [7]): 41 nM

SMILES: C[C@H]1[C@@H](OCc2ccc(C(=O)O)cc2)O[C@@H]2O[C@@]3(C)CC[C@H]4[C@H](C)CC[C@@H]1[C@@]24OO3
- IC50 (Plasmodium falciparum [12]): 6 nM
- IC50 (Plasmodium falciparum [13]): 6 nM
- EC50 (Plasmodium falciparum [13]; [15]): 1.4 ng/mL (≈ 3.35 nM)
- Ratio IC50 (Plasmodium falciparum [14]): 0.75
- EC50 (Plasmodium falciparum [1]; [15]): 4 ng/mL

SMILES: COc1ccc2nc3cc(Cl)ccc3c(NCCNCCO[C@H]3O[C@@H]4O[C@]5(C)CC[C@H]6[C@H](C)CC[C@@H]([C@H]3C)[C@@]46OO5)c2c1
- IC50 (Plasmodium falciparum [4]): 35.3 nM
- IC50 (Plasmodium falciparum [5]): 2.6 nM

SMILES: C[C@@H]1CC[C@H]2[C@@H](C)C(c3ccco3)O[C@@H]3O[C@]4(C)CC[C@@H]1[C@]32OO4 (some centres not stated)
- IC50 (Plasmodium falciparum [5]): 1.4 nM

SMILES: C1CN(c2nc(N3CCOCC3)nc(N3CCC4(CC3)OOC3(OO4)C4CC5CC(C4)CC3C5)n2)CCO1
- IC50 (Plasmodium falciparum [1]): 4.12 nM

SMILES: COc1cc(NC(C)CCCNC2CCC3(CC2)OO[C@@]2(C)CCC(C(C)C)=C[C@H]2O3)c2ncccc2c1 (some centres not stated)
- IC50 (Plasmodium falciparum [8]): 108 nM
- IC50 (Plasmodium falciparum [9]): 108 nM
- IC50 (Plasmodium falciparum [7]): 108 nM

SMILES: Clc1cc(NCCCCNC2CCC3(CC2)OO[C@@]2(c4ccccc4)CC(c4ccccc4)=C[C@H]2O3)c2ncccc2c1 (some centres not stated)
- IC50 (Plasmodium falciparum [8]): 41 nM
- IC50 (Plasmodium falciparum [9]): 41 nM
- IC50 (Plasmodium falciparum [7]): 41 nM

SMILES: CCCC1O[C@@H]2O[C@]3(C)CC[C@H]4[C@H](C)CC[C@@H]([C@H]1C)[C@@]24OO3 (some centres not stated)
- IC50 (Plasmodium falciparum [2]): 0.41 ng/mL
- IC50 (Plasmodium falciparum [3]): 0.16 ng/mL

- IC50 (Plasmodium falciparum [4]): 142 nM
- IC50 (Plasmodium falciparum [5]): 7.3 nM
SMILES: COc1ccc2nc3cc(Cl)ccc3c(NCCN3CCNCC3)c2c1

SMILES: Clc1cc(NCCCN[C@@H]2C[C@@H]3CCC4(OO[C@@]5(c6ccccc6)CC(c6ccccc6)=C[C@H]5O4)[C@@H]3C2)c2ncccc2c1 (some centres not stated)
- IC50 (Plasmodium falciparum [8]): 31 nM
- IC50 (Plasmodium falciparum [9]): 31 nM
- IC50 (Plasmodium falciparum [7]): 31 nM

SMILES: C[C@H]1[C@@H](OC(=O)CCC(=O)Oc2ccc(Nc3ncnc4ccccc34)cc2)O[C@@H]2O[C@]3(C)CC[C@H]4[C@H](C)CC[C@@H]1[C@@]24OO3
- EC50 (Plasmodium falciparum [1]; read-out: EC50): 3.8 nM

SMILES: CCOP(=O)(CCCN(O)C(=O)CCC(=O)N(CCCCNC(=O)CC[C@H]1O[C@@H]2O[C@]3(C)CC[C@H]4[C@H](C)CC[C@@H]([C@H]1C)C24OO3)CCCNC(=O)CC[C@@H]1O[C@H]2O[C@@]3(C)CC[C@@H]4[C@@H](C)CC[C@H]([C@@H]1C)C24OO3)OCC
- IC50 (Plasmodium falciparum [7]): 650 nM
